For nine molecules, IC50 results are on record in ChEMBL document CHEMBL1125810, “Acyclic analogues of 2-(4-phenylpiperidino)cyclohexanol (vesamicol): conformationally mobile inhibitors of vesicular acetylcholine transport” (J Med Chem, 1991).

The experiment concerns the target T1, Vesicular acetylcholine transporter (Torpedo californica, UniProt P81721).
T1 sequence (P81721 whole entry): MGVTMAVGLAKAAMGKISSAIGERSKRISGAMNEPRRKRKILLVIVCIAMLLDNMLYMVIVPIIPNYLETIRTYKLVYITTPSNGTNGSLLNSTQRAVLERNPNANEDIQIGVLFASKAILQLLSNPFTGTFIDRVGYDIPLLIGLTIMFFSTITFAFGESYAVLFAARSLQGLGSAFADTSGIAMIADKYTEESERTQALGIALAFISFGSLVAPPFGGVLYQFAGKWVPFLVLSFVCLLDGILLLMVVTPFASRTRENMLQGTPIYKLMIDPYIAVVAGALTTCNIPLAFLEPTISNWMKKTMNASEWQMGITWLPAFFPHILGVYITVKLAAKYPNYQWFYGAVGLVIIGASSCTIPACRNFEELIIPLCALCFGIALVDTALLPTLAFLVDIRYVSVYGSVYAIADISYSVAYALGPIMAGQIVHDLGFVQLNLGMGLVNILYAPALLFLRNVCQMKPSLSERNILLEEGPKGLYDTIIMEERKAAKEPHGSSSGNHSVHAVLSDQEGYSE
Kind of experiment: Displacement of [3H]vesamicol from Vesamicol receptor of Torpedo californica. On the set-up: species or system Tetronarce californica.
The IC50 is the point on the concentration scale where inhibition reaches its midpoint. The low end stands for greater potency in that assay, the high end for weaker potency in that assay. As for `OC(Cc1cccc(Br)c1)CN1CCN(c2ccccc2)CC1` (centres undefined), the IC50 amounted to 990 nM. That is a sub-micromolar value.
On to `Oc1ccc(CC(O)CN2CCC(c3ccccc3)CC2)cc1` (centres undefined), for which the IC50 was found to be 220 nM.
The figure for `OC(Cc1cccc(I)c1)CN1CCC(c2ccccc2)CC1` (centres undefined) is 73 nM; for `OC(Cc1cccc(Br)c1)CN1CCC(c2ccccc2)CC1` (centres undefined) it is 73 nM.
With `OC(Cc1ccc2ccccc2c1)CN1CCC(c2ccccc2)CC1` (centres undefined), the IC50 amounted to 145 nM.
Regarding `COc1cccc(CC(O)CN2CCC(c3ccccc3)CC2)c1` (centres undefined), the IC50 came to 115 nM.
The figure for `Oc1cccc(CC(O)CN2CCC(c3ccccc3)CC2)c1` (centres undefined) is 520 nM; for `OC(Cc1cccc2ccccc12)CN1CCC(c2ccccc2)CC1` (centres undefined) it is 1400 nM.
The figure for `OC(Cc1ccc(Br)cc1)CN1CCN(c2ccccc2)CC1` (centres undefined) is 1540 nM.
